Data on 2 compounds can be found in patent publication US20210122730A1, “GLUCOCORTICOID RECEPTOR MODULATORS” (ORIC Pharmaceuticals, Inc., priority 2017, published 2021).

The experiment deals with T1, PR (Homo sapiens, UniProt P06401).
T1 construct: expressed in transfected cells; host or cells: CHO-K1
T1 sequence (P06401 1-933): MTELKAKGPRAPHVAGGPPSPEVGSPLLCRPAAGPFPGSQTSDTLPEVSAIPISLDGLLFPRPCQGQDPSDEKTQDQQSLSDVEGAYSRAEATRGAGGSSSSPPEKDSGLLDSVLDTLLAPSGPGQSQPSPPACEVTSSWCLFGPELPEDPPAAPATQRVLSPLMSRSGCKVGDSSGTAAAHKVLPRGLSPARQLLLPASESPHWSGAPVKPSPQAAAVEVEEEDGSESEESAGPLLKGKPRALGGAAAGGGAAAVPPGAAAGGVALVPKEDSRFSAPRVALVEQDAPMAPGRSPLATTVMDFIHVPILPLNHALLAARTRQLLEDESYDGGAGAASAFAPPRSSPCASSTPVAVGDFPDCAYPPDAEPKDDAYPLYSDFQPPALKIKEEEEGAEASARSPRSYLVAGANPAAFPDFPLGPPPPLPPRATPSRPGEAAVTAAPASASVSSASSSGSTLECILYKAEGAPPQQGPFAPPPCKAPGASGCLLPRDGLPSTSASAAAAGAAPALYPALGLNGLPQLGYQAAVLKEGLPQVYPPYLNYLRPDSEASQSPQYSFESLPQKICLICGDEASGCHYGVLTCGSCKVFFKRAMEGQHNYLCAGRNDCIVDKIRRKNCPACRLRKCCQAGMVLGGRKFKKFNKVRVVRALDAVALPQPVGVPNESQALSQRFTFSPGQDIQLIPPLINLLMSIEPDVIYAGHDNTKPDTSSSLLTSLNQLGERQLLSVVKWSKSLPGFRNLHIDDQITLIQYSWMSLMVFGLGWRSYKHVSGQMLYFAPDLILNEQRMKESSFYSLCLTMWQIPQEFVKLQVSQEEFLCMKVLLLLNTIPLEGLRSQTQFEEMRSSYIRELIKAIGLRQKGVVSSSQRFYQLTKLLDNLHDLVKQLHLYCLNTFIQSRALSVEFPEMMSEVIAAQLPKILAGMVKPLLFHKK
The experiment is described as follows: In Vitro PR Luciferase Reporter Assay (antagonist mode, CHO-K1-PR-MMTV-Luc reporter cells). In kind it is cell-based. To be noted: antagonist assay with 20 nM Progesterone, 18-24 hours, read-out: PR antagonism IC50. From the text: Example C: In Vitro PR Luciferase Reporter Assay
Cell Line: CHO-KI-PR-MMTV-Luc reporter cells
Culture Media: DMEM (with phenol red)+1000FBS
Assay Media: DMEM (without phenol red)+1000CSS
Culture CHO-Kl-PR-MMTV-Luc reporter cells in 15 cm plates in Culture Media at conditions less than 90% confluence.
Prepared 200×DMSO 1:8 serial dilutions of control and test compounds in 96-well non-sterile V bottom plate in DMSO, 8 serial dilutions for each compound.
Prepared 5× Assay Media diluted compound serial dilutions in 96-well non-sterile V bottom plate: Add 97.5 μL/well of Assay Media into 96-well then add 2.5 μl of 200× concentration of compounds and mix well.
Added compounds: 5 μl of assay media diluted compounds were added to appropriate wells and followed a quick spin (1000 rpm, 10 sec) to bring media and cells to the bottom of plate. The plates were covered with SealMate film to avoid evaporation and placed in 37° C. incubator for approximately 18-24 hours.
Read plates: Equilibrated appropriate amount of Promega One-Glo luciferase reagent to room temperature. Removed the plates from incubator and added 25 μL of One-Glo luciferase reagent/well by multiple channel pipette and read the plates with Tecan F500 luminometer within 3 minutes.
The ability of exemplary compounds disclosed herein to inhibit PR activity was quantified and the respective IC50 value was determined. Table 4 provides the cellular IC50 values of exemplary compounds disclosed herein.
A general note: A reporter such as luciferase makes a cellular process visible.

Turning to `Cn1cnc(S(=O)(=O)N(C2CC2)[C@H]2CCC3=Cc4c(cnn4-c4ccc(F)cc4)C[C@]3(C(=O)c3ncc(C(F)(F)F)s3)C2)n1` [Example 305, N-cyclopropyl-N-((4aS,6S)-1-(4-fluorophenyl)-4a-(5-(trifluoromethyl)thiazole-2-carbonyl)-4,4a,5,6,7,8-hexahydro-1H-benzo[f]indazol-6-yl)-1-methyl-1H-1,2,4-triazole-3-sulfonamide], the IC50 – broadly, the concentration that inhibits the measured activity by half – is > 5 µM. For `Cn1cnc(S(=O)(=O)N(C2CC2)[C@H]2CCC3=Cc4c(cnn4-c4ccc(F)cc4)C[C@]3(C(=O)c3cc(C(F)(F)F)ccn3)C2)n1` [Example 306, N-cyclopropyl-N-((4aS,6S)-1-(4-fluorophenyl)-4a-(4-(trifluoromethyl)picolinoyl)-4,4a,5,6,7,8-hexahydro-1H-benzo[f]indazol-6-yl)-1-methyl-1H-1,2,4-triazole-3-sulfonamide] the value was > 5 µM.
